Results as given in US11572399B2, “Long-acting GIP peptide analogues” (University of Copenhagen, priority 2017, dated 2023).
Where two headings read alike, the source gives them in different places. Numbered stars: 1 amine (or outer) side, 2 acyl side, 3 side chain; on linkers, the order of the positions; unused ones are H or OH. Side chains are listed from the residue outwards. Peptide text beside a SMILES is read from it. * marks the point of attachment. C16 diacid = O=C(O)CCCCCCCCCCCCCCC(=O)*; γGlu = O=C(O)[C@H](CCC(=O)[*:2])N[*:1]; Palmitoyl = CCCCCCCCCCCCCCCC(=O)*; βAla = NCCC(=O)O

Columns and labels:
human GIP receptor [1] = target: T1, human GIP receptor (Homo sapiens, UniProt P48546); assay: cAMP accumulation assay, antagonism of a GIP-mediated cAMP response (50-80% of max); type: cell-based; details: for IC50: transiently transfected COS-7 cells
T1 construct: host or cells: COS-7, transient transfection (calcium phosphate), cDNA in pCMV-Script
T1 sequence (P48546 22-466): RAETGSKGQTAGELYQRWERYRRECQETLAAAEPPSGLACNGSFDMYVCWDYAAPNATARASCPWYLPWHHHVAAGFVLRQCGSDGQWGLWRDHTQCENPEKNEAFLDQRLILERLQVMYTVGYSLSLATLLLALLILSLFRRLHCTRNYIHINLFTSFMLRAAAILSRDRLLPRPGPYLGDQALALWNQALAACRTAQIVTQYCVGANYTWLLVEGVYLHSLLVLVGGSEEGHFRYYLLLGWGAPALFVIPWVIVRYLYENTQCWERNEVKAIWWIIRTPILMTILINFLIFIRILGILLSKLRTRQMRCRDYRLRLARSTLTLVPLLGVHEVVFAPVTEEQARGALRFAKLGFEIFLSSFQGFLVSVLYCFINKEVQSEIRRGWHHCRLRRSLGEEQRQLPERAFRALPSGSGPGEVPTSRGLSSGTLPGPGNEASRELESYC
Description: The day after, the cells were washed twice with Hepes buffered saline (HBS) buffer and incubated with HBS and 1 mM 3-isobutyl-1-methylxanthine (IBMX) for 30 min at 37° C. […] The HitHunter™ cAMP XS assay (DiscoveRx) was carried out according to the manufacturer's instructions.

human GIP receptor [2] = target: T1, human GIP receptor; assay: cAMP accumulation assay, agonism (ligand alone); type: cell-based; details: COS-7 cells, Table 1; for Emax: COS-7, intrinsic cAMP activity
human GIP receptor [3] = target: T1, human GIP receptor; assay: 125I-human GIP competition binding assay, in the presence and absence of 2% HSA; details: for Fold change in affinity, IC50 (plus HSA)/IC50 (minus HSA): presence vs absence of 2% HSA, proxy for albumin binding;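 as to all read-outs here: nonspecific binding taken as radioligand bound to untransfected cells, IC50 obtained from nonlinear regression fits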
Description: Transient transfection of the COS-7 cells for cAMP accumulation and competition binding was performed using the calcium phosphate precipitation method with the addition of chloroquine^46-47.
Transient transfected COS-7 cells expressing the human GIP receptor were seeded in clear 96-well plates the day after transfection using a number of cells/well that obtained 5-10% specific binding of the added radioactive ligand. The following day, cells were assayed by competition binding for 3 h at 4° C. using 15-40 pM 125 I-human GIP as well as increasing concentrations unlabeled ligand in 50 mM Hepes buffer (pH 7.2) in the presence and absence of 2% HSA. After incubation, the cells were washed twice in ice-cold binding buffer (+/−2% HSA) and lysed using 200 mM NaOH with 1% SDS for 30 min. Nonspecific binding was determined as the binding of radioactive ligand to untransfected cells.
IC50, EC50, and Ki values were determined by nonlinear regression. […] Ki values were based on the formula for one class of binding sites in homologous competition binding studies and the Cheng Prussoffs formula, respectively (DeBlasi et al., 1989). To determine the HSA binding potential, the fold change in affinity (as determined by IC50) was calculated as IC50 (plus HSA)/IC50 (minus HSA).

[4] = Elimination half-life (T1/2) estimated in pigs, subcutaneous, RIA; type: in vivo; details: pig; for half-life: plasma, sc, pigs, subcutaneous 1-10 nmol/kg
Description: LYH/LYD strain pigs or mini-pigs were housed in the animal facility at the Faculty of Health and Medical Sciences.
A pig was subcutaneously administered one of the lipidated GIP(3-30)NH2 analogs (compound AT117) (1-10 nmol/kg, total volume 2-6 mL) after which 10-18 blood samples were collected before and up to 57 hours post subcutaneous administration) from a central venous catheter. The catheter was flushed with saline and heparin between samples. Blood was collected into cold EDTA tubes, centrifuged and plasma was kept at −20° C. pending analyses. When experiments are completed, the animals will be killed.
Concentrations of the lipidated GIP(3-30)NH2 or GIP(5-30)NH2 analogues in blood samples from pigs were analysed by RIA. Analogues' immunoreactivity was determined using antiserum Ab95234, Ab95235, Ab95236, a polyclonal in-house antibody raised in rabbits specific for either the mid region of GIP(1-30)NH2 or amidated C-terminus of GIP(3-30)NH2.

[5] = Solubility of linker analogues; type: physicochemical; details: read-out: Solubility, obtainable concentration
[6] = pigs, previously showed; cited from earlier work
[7] = humans, previously determined; cited from earlier work

CC[C@H](C)[C@H](NC(=O)[C@H](CO)NC(=O)[C@H](Cc1ccc(O)cc1)NC(=O)[C@H](CC(=O)O)NC(=O)[C@H](CO)NC(=O)[C@@H](NC(=O)[C@H](Cc1ccccc1)NC(=O)[C@@H](NC(=O)CNC(=O)[C@@H](N)CCC(=O)O)[C@@H](C)O)[C@@H](C)CC)C(=O)N[C@@H](C)C(=O)N[C@@H](CCSC)C(=O)N[C@@H](CC(=O)O)C(=O)N[C@@H](CCCNC(=N)N)C(=O)N[C@H](C(=O)N[C@@H](CCCCNC(=O)CCCCCCCCCCCCCCC(=O)O)C(=O)N[C@@H](CCC(N)=O)C(=O)N[C@@H](CCC(N)=O)C(=O)N[C@@H](CC(=O)O)C(=O)N[C@@H](Cc1ccccc1)C(=O)N[C@H](C(=O)N[C@@H](CC(N)=O)C(=O)N[C@@H](Cc1c[nH]c2ccccc12)C(=O)N[C@@H](CC(C)C)C(=O)N[C@@H](CC(C)C)C(=O)N[C@@H](C)C(=O)N[C@@H](CCC(N)=O)C(=O)N[C@@H](CCCNC(=N)N)C(N)=O)C(C)C)[C@@H](C)CC [AT159, [hGIP(3-30)NH2[K16R; H18K; K30R]-C16diacid/18]] (H-EGTFISDYSIAMDRIK(C16 diacid)QQDFVNWLLAQR-NH2; N-terminus assumed)
cAMP - antagonisme fold (paired) (human GIP receptor [1]; fold vs GIP(3-30)NH2, Table 3b): 0.1 fold
IC50 (human GIP receptor [1]; Table 1 and text, read-out: cAMP antagonism nM (IC50, antagonistic potency)): 6 nM
Emax (human GIP receptor [2]): 6%
EC50 (human GIP receptor [2]; read-out: cAMP agonism nM (EC50)): 2 nM
IC50 (human GIP receptor [3]; 0.1% casein, no HSA, Table 3b, read-out: Binding logIC50 0.1% casein (converted)): 25 nM
IC50 (human GIP receptor [3]; Table 3b, initial data, read-out: Binding IC50): 25 nM
Binding fold (paired) (human GIP receptor [3]; fold decrease in affinity compared to GIP(3-30)NH2, Table 3b): 3 fold
IC50 (human GIP receptor [3]; heterologous competition binding, transiently transfected COS-7 cells expressing the human GIP receptor, read-out: Binding): 18 nM
Fold change in affinity, IC50 (plus HSA)/IC50 (minus HSA) (human GIP receptor [3]): 0.8 fold
half-life [4]: 6 h

CCCCCCCCCCCCCCCC(=O)N[C@@H](CCC(=O)NCCCC[C@H](NC(=O)[C@@H](NC(=O)[C@H](CCCCN)NC(=O)[C@H](CC(=O)O)NC(=O)[C@H](CCSC)NC(=O)[C@H](C)NC(=O)[C@@H](NC(=O)[C@H](CO)NC(=O)[C@H](Cc1ccc(O)cc1)NC(=O)[C@H](CC(=O)O)NC(=O)[C@H](CO)NC(=O)[C@@H](NC(=O)[C@H](Cc1ccccc1)NC(=O)[C@@H](NC(=O)CNC(=O)[C@@H](N)CCC(=O)O)[C@@H](C)O)[C@@H](C)CC)[C@@H](C)CC)[C@@H](C)CC)C(=O)N[C@@H](CCC(N)=O)C(=O)N[C@@H](CCC(N)=O)C(=O)N[C@@H](CC(=O)O)C(=O)N[C@@H](Cc1ccccc1)C(=O)N[C@H](C(=O)N[C@@H](CC(N)=O)C(=O)N[C@@H](Cc1c[nH]c2ccccc12)C(=O)N[C@@H](CC(C)C)C(=O)N[C@@H](CC(C)C)C(=O)N[C@@H](C)C(=O)N[C@@H](CCC(N)=O)C(=O)N[C@@H](CCCCN)C(N)=O)C(C)C)C(=O)O [AT164, [hGIP(3-30)NH2[H18K]-C16/18+y-glutamic acid]] (H-EGTFISDYSIAMDKIK([γGlu-Palmitoyl])QQDFVNWLLAQK-NH2; N-terminus assumed)
Fold change from GIP(3-30)NH2 (increase in potency) (human GIP receptor [1]; Table 5): 6.3 fold
solubility [5]: ≥ 200 µM

CCCCCCCCCCCCCCCC(=O)NCCC(=O)NCCCC[C@H](NC(=O)[C@@H](NC(=O)[C@H](CCCCN)NC(=O)[C@H](CC(=O)O)NC(=O)[C@H](CCSC)NC(=O)[C@H](C)NC(=O)[C@@H](NC(=O)[C@H](CO)NC(=O)[C@H](Cc1ccc(O)cc1)NC(=O)[C@H](CC(=O)O)NC(=O)[C@H](CO)NC(=O)[C@@H](NC(=O)[C@H](Cc1ccccc1)NC(=O)[C@@H](NC(=O)CNC(=O)[C@@H](N)CCC(=O)O)[C@@H](C)O)[C@@H](C)CC)[C@@H](C)CC)[C@@H](C)CC)C(=O)N[C@@H](CCC(N)=O)C(=O)N[C@@H](CCC(N)=O)C(=O)N[C@@H](CC(=O)O)C(=O)N[C@@H](Cc1ccccc1)C(=O)N[C@H](C(=O)N[C@@H](CC(N)=O)C(=O)N[C@@H](Cc1c[nH]c2ccccc12)C(=O)N[C@@H](CC(C)C)C(=O)N[C@@H](CC(C)C)C(=O)N[C@@H](C)C(=O)N[C@@H](CCC(N)=O)C(=O)N[C@@H](CCCCN)C(N)=O)C(C)C [AT166, [hGIP(3-30)NH2[H18K]-C16/18+β-alanine]] (H-EGTFISDYSIAMDKIK([βAla-Palmitoyl])QQDFVNWLLAQK-NH2; N-terminus assumed)
Fold change from GIP(3-30)NH2 (increase in potency) (human GIP receptor [1]; Table 5): 2.9 fold
solubility [5]: ≤ 63.2 µM

CC[C@H](C)[C@H](NC(=O)[C@H](CCCCN)NC(=O)[C@H](CC(=O)O)NC(=O)[C@H](CCSC)NC(=O)[C@H](CCCCNC(=O)CCCCCCCCCCCCCCC(=O)O)NC(=O)[C@@H](NC(=O)[C@H](CO)NC(=O)[C@H](Cc1ccc(O)cc1)NC(=O)[C@H](CC(=O)O)NC(=O)[C@H](CO)NC(=O)[C@@H](NC(=O)[C@H](Cc1ccccc1)NC(=O)[C@@H](N)[C@@H](C)O)[C@@H](C)CC)[C@@H](C)CC)C(=O)N[C@@H](Cc1c[nH]cn1)C(=O)N[C@@H](CCC(N)=O)C(=O)N[C@@H](CCC(N)=O)C(=O)N[C@@H](CC(=O)O)C(=O)N[C@@H](Cc1ccccc1)C(=O)N[C@H](C(=O)N[C@@H](CC(N)=O)C(=O)N[C@@H](Cc1c[nH]c2ccccc12)C(=O)N[C@@H](CC(C)C)C(=O)N[C@@H](CC(C)C)C(=O)N[C@@H](C)C(=O)N[C@@H](CCC(N)=O)C(=O)N[C@@H](CCCCN)C(N)=O)C(C)C [AT175, [hGIP(5-30)NH2[A13K]-C16diacid/13]] (H-TFISDYSIK(C16 diacid)MDKIHQQDFVNWLLAQK-NH2; N-terminus assumed)
Ability to antagonize the GIP-mediated cAMP response (in words) (human GIP receptor [1]): highest antagonistic potencies
Fold change of IC50 versus GIP(5-30)NH2 (human GIP receptor [1]; fold change of IC50 from GIP(5-30)NH2): 0.5
Emax (human GIP receptor [2]): 0%
Fold change HSA (2%)/Casein (0.1%) (human GIP receptor [3]; IC50 (plus HSA)/IC50 (minus HSA)): 7.8
Ki (human GIP receptor [3]; absence of HSA): 53 nM
IC50 (human GIP receptor [3]; binding in 0.1% casein (absence of HSA), log value, read-out: logIC50 0.1% casein (converted)): 79.4 nM
IC50 (human GIP receptor [3]; binding in presence of 2% HSA, read-out: logIC50 2% HSA (converted)): 562 nM
Binding (+/−HSA) Fold (human GIP receptor [3]; fold change +HSA/−HSA): 9.4
Fold change in affinity, IC50 (plus HSA)/IC50 (minus HSA) (human GIP receptor [3]): 7.8 fold
half-life [4]: 6 h
T½ ([4]; subcutaneous): 6 h

CC[C@H](C)[C@H](NC(=O)[C@H](CO)NC(=O)[C@H](Cc1ccc(O)cc1)NC(=O)[C@H](CC(=O)O)NC(=O)[C@H](CO)NC(=O)[C@@H](NC(=O)[C@H](Cc1ccccc1)NC(=O)[C@@H](NC(=O)CNC(=O)[C@@H](N)CCC(=O)O)[C@@H](C)O)[C@@H](C)CC)C(=O)N[C@@H](C)C(=O)N[C@@H](CCSC)C(=O)N[C@@H](CC(=O)O)C(=O)N[C@@H](CCCCN)C(=O)N[C@H](C(=O)N[C@@H](Cc1c[nH]cn1)C(=O)N[C@@H](CCC(N)=O)C(=O)N[C@@H](CCC(N)=O)C(=O)N[C@@H](CC(=O)O)C(=O)N[C@@H](Cc1ccccc1)C(=O)N[C@H](C(=O)N[C@@H](CC(N)=O)C(=O)N[C@@H](Cc1c[nH]c2ccccc12)C(=O)N[C@@H](CC(C)C)C(=O)N[C@@H](CC(C)C)C(=O)N[C@@H](C)C(=O)N[C@@H](CCC(N)=O)C(=O)N[C@@H](CCCCN)C(N)=O)C(C)C)[C@@H](C)CC [hGIP(3-30)NH2, reference compound]
IC50 (human GIP receptor [1]; cAMP antagonism log, given as log IC50 (negative sign), Table 1): 63.1 nM
IC50 (human GIP receptor [1]; cAMP antagonism nM (IC50, antagonistic potency), Table 1 and text): 65 nM
cAMP accumulation logIC50 ± SEM (human GIP receptor [1]; given as log IC50 (negative sign), linker analogues, n=2, Table 5): −7.19 ± 0.10
T1/2 [6]: 7.5 min
T1/2 [7]: 7.5 min
